The record followed here is ChEMBL document CHEMBL1201862, “PubChem BioAssay data set” (2004).

Molecules are shown by their SMILES. The source made the active and inactive calls.

The test system of experiment [1] is HEK293. Nature of the experiment: HEK cell cytotoxicity by LDH release, dose response, cytotoxicity control for IDE activator project, fluorescence, HEK cells (AID 588440).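 Also: cytotoxicity by LDH release measuring loss of membrane integrity.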 The format is functional, cell-based. The settings on record: Homo sapiens. A general note: LDH in the medium is a marker of cell lysis.
For experiment [2], the system named is HEK293. Nature of the experiment: optical interference in Abeta FP readout, dose response, artefact control for IDE activator project, biochemical, fluorescence polarization (AID 588442). The settings on record: Homo sapiens. Type of experiment: functional, cell-based. Background: Polarisation of emitted light reports the rotation of a fluorescent probe.
Experiment [3] concerns the target T1, Tyrosine-protein phosphatase non-receptor type 7 (Homo sapiens, UniProt P35236).
T1 sequence (P35236 whole entry): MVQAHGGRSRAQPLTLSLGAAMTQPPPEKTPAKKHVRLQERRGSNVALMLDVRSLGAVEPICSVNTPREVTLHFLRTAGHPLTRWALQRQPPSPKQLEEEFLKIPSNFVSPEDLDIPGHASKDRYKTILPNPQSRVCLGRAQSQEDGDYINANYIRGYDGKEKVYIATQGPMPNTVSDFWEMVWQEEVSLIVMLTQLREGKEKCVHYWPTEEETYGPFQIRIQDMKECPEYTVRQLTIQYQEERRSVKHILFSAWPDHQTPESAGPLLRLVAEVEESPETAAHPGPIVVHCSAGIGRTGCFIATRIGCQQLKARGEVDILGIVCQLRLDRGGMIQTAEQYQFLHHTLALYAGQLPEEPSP
Type of experiment: functional.

The target of experiment [4] is Dual specificity protein phosphatase 3 (Homo sapiens, UniProt P51452). As to the kind of experiment: SAR VHR1 Fluorescent Assay for In Vitro dose response studies. [Related pubchem assays (depositor defined):AID1654, AID1661, AID1878, AID1992, AID2004, AID2070, AID2085]. Type of experiment: functional.
Experiment [5] has as its target T1, Tyrosine-protein phosphatase non-receptor type 7. Nature of the experiment: redox-dependent HePTP inhibition, mechanism study, biochemical, fluorescence (AID 2068). Type of experiment: functional.
Experiment [6] concerns the target T2, Tyrosine-protein phosphatase non-receptor type 22 (Homo sapiens, UniProt Q9Y2R2).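 Also: confirmatory dose-response retest of primary uHTS hits for inhibition of LYP phosphatase, measured by a fluorescence intensity read-out.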
T2 sequence (Q9Y2R2 whole entry): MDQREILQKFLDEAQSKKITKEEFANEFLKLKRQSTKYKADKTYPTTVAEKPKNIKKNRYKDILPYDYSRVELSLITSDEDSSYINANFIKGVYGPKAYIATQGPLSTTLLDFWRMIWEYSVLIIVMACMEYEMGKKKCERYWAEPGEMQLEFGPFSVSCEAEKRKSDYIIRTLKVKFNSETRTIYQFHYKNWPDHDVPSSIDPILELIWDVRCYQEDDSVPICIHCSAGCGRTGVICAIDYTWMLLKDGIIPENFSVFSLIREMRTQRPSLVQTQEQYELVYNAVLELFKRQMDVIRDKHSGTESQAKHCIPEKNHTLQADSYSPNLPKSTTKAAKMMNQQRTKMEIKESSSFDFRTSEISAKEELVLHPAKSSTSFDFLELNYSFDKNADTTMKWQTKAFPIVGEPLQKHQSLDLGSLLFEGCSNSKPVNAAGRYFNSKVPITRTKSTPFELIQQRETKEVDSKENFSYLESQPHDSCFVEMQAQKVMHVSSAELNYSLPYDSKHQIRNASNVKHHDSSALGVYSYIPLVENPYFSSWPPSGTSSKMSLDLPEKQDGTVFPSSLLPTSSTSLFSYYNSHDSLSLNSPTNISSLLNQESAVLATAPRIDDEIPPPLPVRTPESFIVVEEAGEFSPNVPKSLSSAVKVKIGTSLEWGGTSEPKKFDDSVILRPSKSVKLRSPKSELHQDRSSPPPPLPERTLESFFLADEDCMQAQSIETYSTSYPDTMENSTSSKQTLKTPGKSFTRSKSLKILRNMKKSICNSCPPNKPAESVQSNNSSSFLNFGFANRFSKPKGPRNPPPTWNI
Type of experiment: functional.

Experiment [7] has as its target T3, Tyrosine-protein phosphatase non-receptor type 11 (Homo sapiens, UniProt Q06124).
T3 sequence (Q06124 whole entry): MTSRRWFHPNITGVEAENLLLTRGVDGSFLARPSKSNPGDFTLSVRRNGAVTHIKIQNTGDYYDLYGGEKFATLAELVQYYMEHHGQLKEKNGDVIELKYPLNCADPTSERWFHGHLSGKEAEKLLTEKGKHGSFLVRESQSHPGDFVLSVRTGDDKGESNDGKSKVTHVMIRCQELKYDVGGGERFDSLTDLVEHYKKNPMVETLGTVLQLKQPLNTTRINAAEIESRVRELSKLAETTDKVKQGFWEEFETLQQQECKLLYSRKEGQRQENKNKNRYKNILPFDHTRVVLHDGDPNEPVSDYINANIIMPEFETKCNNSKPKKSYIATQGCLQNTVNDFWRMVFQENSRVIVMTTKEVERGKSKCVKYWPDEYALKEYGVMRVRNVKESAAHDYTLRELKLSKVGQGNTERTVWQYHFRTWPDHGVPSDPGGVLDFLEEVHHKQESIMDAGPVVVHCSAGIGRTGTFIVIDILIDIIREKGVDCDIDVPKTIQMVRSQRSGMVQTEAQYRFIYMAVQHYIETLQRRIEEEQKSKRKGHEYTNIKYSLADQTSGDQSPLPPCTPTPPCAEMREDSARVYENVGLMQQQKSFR
Nature of the experiment: SHP2 phosphatase inhibition, dose response, selectivity assay for STEP inhibitor project, biochemical (AID 602367). Type of experiment: functional. The settings on record: read-out: IC50_Mean.

Experiment [8] addresses T4, Tyrosine-protein phosphatase non-receptor type 5 (Homo sapiens, UniProt P54829).
T4 sequence (P54829 whole entry): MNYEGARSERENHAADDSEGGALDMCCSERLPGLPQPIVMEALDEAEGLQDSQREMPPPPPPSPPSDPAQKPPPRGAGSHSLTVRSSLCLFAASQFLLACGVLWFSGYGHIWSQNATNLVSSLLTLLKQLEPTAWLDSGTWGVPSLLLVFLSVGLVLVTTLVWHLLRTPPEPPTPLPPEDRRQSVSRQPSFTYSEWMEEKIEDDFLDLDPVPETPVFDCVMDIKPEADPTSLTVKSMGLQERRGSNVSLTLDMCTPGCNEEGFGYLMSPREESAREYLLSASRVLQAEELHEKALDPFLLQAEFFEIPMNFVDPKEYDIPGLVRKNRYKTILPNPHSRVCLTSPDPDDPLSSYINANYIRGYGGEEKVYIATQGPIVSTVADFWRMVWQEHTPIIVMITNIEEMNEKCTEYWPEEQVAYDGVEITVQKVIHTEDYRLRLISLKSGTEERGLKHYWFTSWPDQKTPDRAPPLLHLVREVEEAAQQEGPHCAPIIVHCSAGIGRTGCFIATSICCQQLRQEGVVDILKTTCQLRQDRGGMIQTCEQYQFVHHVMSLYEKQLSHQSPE
As to the kind of experiment: STEP phosphatase inhibitors, confirmation, biochemical, fluorescence intensity, uHTS hits (AID 602372). The format is functional. The settings on record: read-out: IC50_Mean.

Experiment [9] deals with Small ubiquitin-related modifier 1 (Homo sapiens, UniProt P63165). As to the kind of experiment: inhibitors of SUMO1 partner interactions, dose response, biochemical, FRET (AID 624383). The settings on record: read-out: IC50_Mean. Type of experiment: functional.
A further experiment has as its target SUMO E1/E2 (Homo sapiens, UniProt P63279+Q9UBE0+Q9UBT2). Nature of the experiment: SAR analysis of SUMOylation using HTRF in an in-Vitro dose response assay. [Related pubchem assays (depositor defined):AID2006, AID2011, AID2018, AID2069, AID2658]. Type of experiment: functional.

Dual specificity protein phosphatase 3, sequence (P51452 whole entry): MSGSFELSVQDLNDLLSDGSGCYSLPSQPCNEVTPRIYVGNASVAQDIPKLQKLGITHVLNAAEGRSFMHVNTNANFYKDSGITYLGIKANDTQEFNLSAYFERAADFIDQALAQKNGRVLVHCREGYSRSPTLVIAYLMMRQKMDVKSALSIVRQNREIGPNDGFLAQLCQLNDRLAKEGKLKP
Small ubiquitin-related modifier 1, sequence (P63165 whole entry): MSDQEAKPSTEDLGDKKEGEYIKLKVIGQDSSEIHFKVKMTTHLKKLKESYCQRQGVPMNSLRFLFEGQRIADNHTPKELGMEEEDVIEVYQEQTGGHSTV
SUMO E1/E2, sequence (Q9UBE0 whole entry): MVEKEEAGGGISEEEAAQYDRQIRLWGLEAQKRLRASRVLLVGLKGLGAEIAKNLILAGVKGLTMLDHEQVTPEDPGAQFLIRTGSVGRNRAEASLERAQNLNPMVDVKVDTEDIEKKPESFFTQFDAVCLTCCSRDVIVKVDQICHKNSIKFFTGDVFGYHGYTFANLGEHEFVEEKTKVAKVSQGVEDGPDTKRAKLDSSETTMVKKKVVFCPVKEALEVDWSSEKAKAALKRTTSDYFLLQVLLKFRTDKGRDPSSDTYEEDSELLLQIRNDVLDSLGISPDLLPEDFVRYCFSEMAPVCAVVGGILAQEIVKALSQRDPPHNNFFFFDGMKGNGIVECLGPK
SUMO E1/E2, sequence (Q9UBT2 whole entry): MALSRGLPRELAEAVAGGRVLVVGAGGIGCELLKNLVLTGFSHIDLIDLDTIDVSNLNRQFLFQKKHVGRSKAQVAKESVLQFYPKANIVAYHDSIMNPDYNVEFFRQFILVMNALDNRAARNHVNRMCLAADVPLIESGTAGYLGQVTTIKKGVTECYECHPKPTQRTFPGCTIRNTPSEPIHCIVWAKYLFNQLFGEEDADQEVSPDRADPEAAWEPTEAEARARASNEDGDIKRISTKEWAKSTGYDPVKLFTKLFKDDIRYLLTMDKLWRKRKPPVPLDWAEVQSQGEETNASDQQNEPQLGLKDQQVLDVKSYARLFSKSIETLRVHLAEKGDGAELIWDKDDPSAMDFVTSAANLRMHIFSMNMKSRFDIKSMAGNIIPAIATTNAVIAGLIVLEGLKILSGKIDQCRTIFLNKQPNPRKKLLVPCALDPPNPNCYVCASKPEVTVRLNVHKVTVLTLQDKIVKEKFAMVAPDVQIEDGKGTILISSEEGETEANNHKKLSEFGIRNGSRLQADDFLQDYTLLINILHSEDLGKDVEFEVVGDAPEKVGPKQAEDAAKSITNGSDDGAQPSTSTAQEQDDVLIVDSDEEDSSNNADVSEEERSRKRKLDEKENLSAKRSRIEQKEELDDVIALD
SUMO E1/E2, sequence (P63279 whole entry): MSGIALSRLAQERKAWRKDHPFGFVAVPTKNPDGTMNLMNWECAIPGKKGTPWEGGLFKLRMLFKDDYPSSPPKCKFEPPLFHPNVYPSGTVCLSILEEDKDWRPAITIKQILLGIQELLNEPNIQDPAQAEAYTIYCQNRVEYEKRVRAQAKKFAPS

A word on the EC50: it is the concentration at which the effect is half-maximal. For `O=c1oc2c(O)cccc2cc1-c1nc2ccccc2[nH]1`, the IC50 in the experiment with HEK293 [1] is > 89300 nM (inactive). Besides, in the experiment on HEK293 [2], the EC50 was > 54700 nM (inactive).

Turning to `CCOC(=O)c1sc2nc3c(SCC(=O)O)cc(C(=O)c4ccccc4O)cn3c(=O)c2c1C`, the IC50 in experiment [3] is < 1240 nM (active); in [4] it was 382 nM (active); in experiment [5] it was 105 nM (active); in [6], < 1240 nM (active); in experiment [7], 1080 nM (active); in experiment [8], 2180 nM (active). For the same compound, the IC50 in [9] is 6200 nM (active).

As for `C=CCn1c(NC(=O)c2ccccc2Cl)c(C#N)c2nc3ccccc3nc21`, the IC50 on SUMO E1/E2 is 15700 nM (active).
